This note sets out measurements from patent publication US11040954B1, “CXCR3 receptor agonists” (RECEPTOS LLC, priority 2016, dated 2021).

The assay addresses T1, CXCR3 (Homo sapiens, UniProt P49682).
T1 construct: host or cells: CHO-K1 (cAMP Hunter CHOK1 CXCR3 Gi cell line)
T1 sequence (P49682 1-368): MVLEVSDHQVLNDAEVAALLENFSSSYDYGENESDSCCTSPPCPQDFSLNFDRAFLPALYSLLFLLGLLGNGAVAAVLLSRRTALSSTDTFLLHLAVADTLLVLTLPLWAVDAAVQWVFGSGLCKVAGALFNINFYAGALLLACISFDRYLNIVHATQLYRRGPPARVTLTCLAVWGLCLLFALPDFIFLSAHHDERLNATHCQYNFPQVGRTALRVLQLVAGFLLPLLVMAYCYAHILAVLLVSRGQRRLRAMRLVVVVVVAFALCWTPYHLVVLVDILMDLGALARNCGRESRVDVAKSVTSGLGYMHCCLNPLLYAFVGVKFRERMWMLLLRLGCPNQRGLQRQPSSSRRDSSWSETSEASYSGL
Kind of assay: CXCR3 cAMP agonist assay (cAMP Hunter CHOK1 CXCR3 Gi cell line, forskolin-stimulated, HitHunter cAMP detection). The assay is classed as cell-based. The conditions noted are these: cAMP Hunter CHOK1 CXCR3 Gi cells, 20 μM forskolin, 30 minutes; read-out: Activity (CXCR3 cAMP agonist assay compound EC50). The gist of the method: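 CHOK1 cells expressing human CXCR3 with Gi coupling, 50,000/well in suspension in HBSS/10 mM HEPES/0.1% BSA pH 7.4, were co-treated with 20 μM forskolin and compound (12-point, 0-10 μM, 1% DMSO) for 30 min. cAMP was read by enzyme-complementation luminescence; CXCL11 dose response set maximum efficacy.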
The EC50 is the concentration giving half of the maximal effect. Regarding `Cc1cc(NC(=O)[C@](C)(CCCCN)NC(=O)[C@@H]2Cc3ccccc3CN2C(=O)CCC(=O)c2ccccc2)ccc1Cl` [Compound 4-10], the EC50 was in the range of 0.05 to 0.25 µM. For `NCC[C@H](NC(=O)[C@@H]1Cc2ccccc2CN1C(=O)CCC(=O)c1ccccc1)C(=O)Nc1cc(Cl)c(Cl)cn1` [Compound 4-15] the value was 0.25 to 0.5 µM. Consider `Cc1cc(NC(=O)[C@H](CCN)NC(=O)[C@@H]2Cc3ccccc3CN2C(=O)CCC(=O)c2ccccc2)ncc1Cl` [Compound 4-16], for which the half-maximal effective concentration (EC50) is below 0.05 µM. For `Cc1cc(NC(=O)[C@H](CCN)NC(=O)[C@H]2Cc3ccccc3CN2C(=O)CCC(=O)c2ccccc2)ncc1Cl` [Compound 4-17] the value was above 0.5 µM; for `Cc1cc(NC(=O)[C@H](CCN)NC(=O)[C@@H]2Cc3ccccc3CN2C(=O)CCC(=O)c2ccccc2)cc(Cl)c1Cl` [Compound 4-18], 0.05 to 0.25 µM. As to `Cc1c(F)cc(NC(=O)[C@H](CCN)NC(=O)[C@@H]2Cc3ccccc3CN2C(=O)CCC(=O)c2ccccc2)cc1Cl` [Compound 4-19], the EC50 was below 0.05 µM. The figure for `NCC[C@H](NC(=O)[C@@H]1Cc2ccc(O)cc2CN1C(=O)CCC(=O)c1ccccc1)C(=O)Nc1ccc(Cl)c(Cl)c1F` [Compound 4-20] is below 0.05 µM; for `CN(C)C(=N)NCCC[C@H](NC(=O)[C@@H]1Cc2ccccc2CN1C(=O)CCC(=O)c1ccccc1)C(=O)Nc1ccc(Cl)c(Cl)c1` [Compound 5-1, (S)—N—((S)-1-((3,4-dichlorophenyl)amino)-5-(3,3-dimethylguanidino)-1-oxopentan-2-yl)-2-(4-oxo-4-phenylbutanoyl)-1,2,3,4-tetrahydroisoquinoline-3-carboxamide] it is below 0.05 µM; for `Cc1cc(NC(=O)[C@H](Cc2cncn2C)NC(=O)[C@@H]2Cc3ccccc3CN2C(=O)CCC(=O)c2ccccc2)ccc1Cl` [Compound 5-2] it is 0.05 to 0.25 µM. The figure for `Cc1cc(NC(=O)[C@H](Cc2cncs2)NC(=O)[C@@H]2Cc3ccccc3CN2C(=O)CCC(=O)c2ccccc2)ccc1Cl` [Compound 5-3] is 0.05 to 0.25 µM. The figure for `Cc1cc(NC(=O)[C@H](CCN2CCOCC2)NC(=O)[C@@H]2Cc3ccccc3CN2C(=O)CCC(=O)c2ccccc2)ccc1Cl` [Compound 5-4] is 0.05 to 0.25 µM; for `Cc1cc(NC(=O)[C@H](CCCC[N+](C)(C)C)NC(=O)[C@@H]2Cc3ccccc3CN2C(=O)CCC(=O)c2ccccc2)ccc1Cl` [Compound 6-3] it is 0.05 to 0.25 µM.

As to `Cc1cc(NC(=O)[C@H](CC[N+](C)(C)C)NC(=O)[C@@H]2Cc3ccccc3CN2C(=O)CCC(=O)c2ccccc2)ccc1Cl` [Compound 6-7], the EC50 was in the range of 0.05 to 0.25 µM. Regarding `Cc1cc(NC(=O)[C@H](CCCCN)NC(=O)[C@@H]2Cc3ccccc3CN2C(=O)CCC(=O)c2cccc(Cl)c2)ccc1Cl` [Compound 7-2], the EC50 lay in the range of 0.05 to 0.25 µM. For `Cc1cc(C(=O)CCC(=O)N2Cc3ccccc3C[C@H]2C(=O)N[C@@H](CCCCN)C(=O)Nc2ccc(Cl)c(C)c2)ccc1F` [Compound 7-3] the value was 0.05 to 0.25 µM; for `Cc1cc(NC(=O)[C@H](CCCCN)NC(=O)[C@@H]2Cc3ccccc3CN2C(=O)CCC(=O)c2ccc(F)c(F)c2)ccc1Cl` [Compound 7-4], 0.25 to 0.5 µM; for `Cc1ccc(C(=O)CCC(=O)N2Cc3ccccc3C[C@H]2C(=O)N[C@@H](CCCCN)C(=O)Nc2ccc(Cl)c(C)c2)cc1F` [Compound 7-5], above 0.5 µM. For `Cc1cc(NC(=O)[C@H](CCCCN)NC(=O)[C@@H]2Cc3ccccc3CN2C(=O)CCC(=O)c2cccc(N(C)C)c2)ccc1Cl` [Compound 7-6] the value was 0.05 to 0.25 µM; for `CCOc1cccc(C(=O)CCC(=O)N2Cc3ccccc3C[C@H]2C(=O)N[C@@H](CCCCN)C(=O)Nc2ccc(Cl)c(C)c2)c1` [Compound 7-7], 0.05 to 0.25 µM. For `Cc1cc(NC(=O)[C@H](CCCCN)NC(=O)[C@@H]2Cc3ccccc3CN2C(=O)CCC(=O)c2cccc(C(F)(F)F)c2)ccc1Cl` [Compound 7-8] the value was below 0.05 µM; for `COc1ccc(C(=O)CCC(=O)N2Cc3ccccc3C[C@H]2C(=O)N[C@@H](CCCCN)C(=O)Nc2ccc(Cl)c(C)c2)cc1F` [Compound 7-9], above 0.5 µM; for `Cc1cc(NC(=O)[C@H](CCNCC(C)C)NC(=O)[C@@H]2Cc3ccccc3CN2C(=O)CCC(=O)c2ccccc2)ccc1Cl` [Compound 8-1, (S)—N—((S)-1-((4-chloro-3-methylphenyl)amino)-4-(isobutylamino)-1-oxobutan-2-yl)-2-(4-oxo-4-phenylbutanoyl)-1,2,3,4-tetrahydroisoquinoline-3-carboxamide], below 0.05 µM. For `CCNCC[C@H](NC(=O)[C@@H]1Cc2ccccc2CN1C(=O)CCC(=O)c1ccccc1)C(=O)Nc1ccc(Cl)c(C)c1` [Compound 8-4], the EC50 was below 0.05 µM. For `Cc1cc(NC(=O)[C@H](CCCNC(C)C)NC(=O)[C@@H]2Cc3ccccc3CN2C(=O)CCC(=O)c2ccccc2)ccc1Cl` [Compound 8-5] the value was below 0.05 µM. For `Cc1cc(NC(=O)[C@H](CCNCC(F)(F)F)NC(=O)[C@@H]2Cc3ccccc3CN2C(=O)CCC(=O)c2ccccc2)ccc1Cl` [Compound 8-6] the value was 0.05 to 0.25 µM; for `CC(C)NCC[C@H](NC(=O)[C@@H]1Cc2ccccc2CN1C(=O)CCC(=O)c1ccccc1)C(=O)Nc1ccc(Cl)c(Cl)c1F` [Compound 8-7], below 0.05 µM.

`Cc1cc(NC(=O)[C@H](CNC(=N)N)NC(=O)[C@@H]2Cc3ccccc3CN2C(=O)CCC(=O)c2ccccc2)ccc1Cl` [Compound 9-1, (S)—N—((S)-1-((4-chloro-3-methylphenyl)amino)-3-guanidino-1-oxopropan-2-yl)-2-(4-oxo-4-phenylbutanoyl)-1,2,3,4-tetrahydroisoquinoline-3-carboxamide]: the EC50 is below 0.05 µM. As for `Cc1cc(NC(=O)[C@H](CCN)NC(=O)[C@@H]2Cc3ccccc3CN2C(=O)CCC(=O)N2CCCCC2)ccc1Cl` [Compound 10-1, (S)—N—((S)-4-amino-1-((4-chloro-3-methylphenyl)amino)-1-oxobutan-2-yl)-2-(4-oxo-4-(piperidin-1-yl)butanoyl)-1,2,3,4-tetrahydroisoquinoline-3-carboxamide], the EC50 is below 0.05 µM. The figure for `Cc1cc(NC(=O)[C@H](CCN)NC(=O)[C@@H]2Cc3ccccc3CN2C(=O)CCC(=O)N2CCOCC2)ccc1Cl` [Compound 10-2] is 0.05 to 0.25 µM.

For the compound `Cc1cc(NC(=O)[C@H](CCN)NC(=O)[C@@H]2Cc3ccccc3CN2C(=O)CCC(=O)N2CCN(C)CC2)ccc1Cl` [Compound 10-3], the half-maximal effective concentration (EC50) was below 0.05 µM. The figure for `CN1CCN(C(=O)CCC(=O)N2Cc3ccccc3C[C@H]2C(=O)N[C@@H](CCN)C(=O)Nc2ccc(Cl)c(Cl)c2F)CC1` [Compound 10-4] is below 0.05 µM; for `NCC[C@H](NC(=O)[C@@H]1Cc2ccccc2CN1C(=O)CCC(=O)N1CCC2CCCCC2C1)C(=O)Nc1ccc2c(c1)CCC2` (stereo partly shown) [Compound 10-5] it is below 0.05 µM; for `NCC[C@H](NC(=O)[C@@H]1Cc2ccccc2CN1C(=O)CCC(=O)N1CCCC12CCC2)C(=O)Nc1ccc2c(c1)CCC2` [Compound 10-6] it is below 0.05 µM. For `CC1(C)CCCN(C(=O)CCC(=O)N2Cc3ccccc3C[C@H]2C(=O)N[C@@H](CCN)C(=O)Nc2ccc3c(c2)CCC3)C1` [Compound 10-7] the value was below 0.05 µM; for `Cc1cc(NC(=O)[C@H](CCN)NC(=O)[C@@H]2Cc3ccccc3CN2C(=O)CCC(=O)N2CCCC23CCC3)cc(C)c1Cl` [Compound 10-10], below 0.05 µM. Take `Cc1cc(NC(=O)[C@H](CCN)NC(=O)[C@@H]2Cc3ccccc3CN2C(=O)CCC(=O)N2CCCC3(CCC3)C2)cc(C)c1Cl` [Compound 10-11]: the EC50 was below 0.05 µM.

As to `Cc1cc(NC(=O)[C@H](CCN)NC(=O)[C@@H]2Cc3ccccc3CN2C(=O)CCC(=O)N2CCC(C)(C)CC2)cc(C)c1Cl` [Compound 10-12], the concentration for a half-maximal effect (EC50) was below 0.05 µM. The figure for `Cc1cccc(NC(=O)C2(NC(=O)[C@@H]3Cc4ccccc4CN3C(=O)CCC(=O)c3ccccc3)CCNCC2)c1Cl` [Compound 11-1, (S)—N-(4-((2-chloro-3-methylphenyl)carbamoyl)piperidin-4-yl)-2-(4-oxo-4-phenylbutanoyl)-1,2,3,4-tetrahydroisoquinoline-3-carboxamide] is above 0.5 µM.

As for `Cc1c(NC(=O)C2(NC(=O)[C@@H]3Cc4ccccc4CN3C(=O)CCC(=O)c3ccccc3)CCNCC2)ccc(Cl)c1Cl` [Compound 11-2], the concentration for a half-maximal effect (EC50) fell in the range of 0.25 to 0.5 µM. For `Cc1cc(NC(=O)C2(NC(=O)[C@@H]3Cc4ccccc4CN3C(=O)CCC(=O)c3ccccc3)CCNCC2)c(F)cc1Cl` [Compound 11-3] the value was below 0.05 µM. Turning to `Cc1c(Cl)ccc(NC(=O)C2(NC(=O)[C@@H]3Cc4ccccc4CN3C(=O)CCC(=O)c3ccccc3)CCNCC2)c1C` [Compound 11-4], the EC50 was 0.05 to 0.25 µM. For `O=C(CCC(=O)N1Cc2ccccc2C[C@H]1C(=O)NC1(C(=O)Nc2cccc(Cl)c2Cl)CCNCC1)c1ccccc1` [Compound 11-5] the value was above 0.5 µM; for `Cc1cc(NC(=O)C2(NC(=O)[C@@H]3Cc4ccccc4CN3C(=O)CCC(=O)c3ccccc3)CCNCC2)c(Cl)cc1Cl` [Compound 11-6], below 0.05 µM.
